Experimental data published in patent publication US9353107B2 (Aurigene Discovery Technologies Limited, priority 2012, dated 2016).
Structures can show the parent of a compound that is named as a salt.

Target: T1, recombinant human ALK enzyme (ALK WT) (Homo sapiens, UniProt Q9UM73)
T1 construct: purchased Carna Biosciences 08-518
Assay: ALK WT cell free enzymatic assay (TR-FRET)
Type: biochemical
Settings: 1 μM ATP; for IC50: 10 point dose response; for inhibition at 0.1 µM: compound at 100 nM; for inhibition at 0.1 µM / inhibition at 1 µM: 30 min pre-incubation; for inhibition at 1 µM: compound at 1 μM
Method in brief: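 Recombinant human ALK with 40 nM Ultra Light Poly GT, 1 μM ATP and Eu anti-phosphotyrosine antibody, 1% DMSO, pH 7.1 HEPES; 30 min enzyme-compound pre-incubation, then 30 min reaction. TR-FRET 665/615 ratio; percent inhibition at 100 nM and 1 μM, IC50 from 10-point sigmoidal fit.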

T1 sequence (Q9UM73 1058-1620 limits assumed): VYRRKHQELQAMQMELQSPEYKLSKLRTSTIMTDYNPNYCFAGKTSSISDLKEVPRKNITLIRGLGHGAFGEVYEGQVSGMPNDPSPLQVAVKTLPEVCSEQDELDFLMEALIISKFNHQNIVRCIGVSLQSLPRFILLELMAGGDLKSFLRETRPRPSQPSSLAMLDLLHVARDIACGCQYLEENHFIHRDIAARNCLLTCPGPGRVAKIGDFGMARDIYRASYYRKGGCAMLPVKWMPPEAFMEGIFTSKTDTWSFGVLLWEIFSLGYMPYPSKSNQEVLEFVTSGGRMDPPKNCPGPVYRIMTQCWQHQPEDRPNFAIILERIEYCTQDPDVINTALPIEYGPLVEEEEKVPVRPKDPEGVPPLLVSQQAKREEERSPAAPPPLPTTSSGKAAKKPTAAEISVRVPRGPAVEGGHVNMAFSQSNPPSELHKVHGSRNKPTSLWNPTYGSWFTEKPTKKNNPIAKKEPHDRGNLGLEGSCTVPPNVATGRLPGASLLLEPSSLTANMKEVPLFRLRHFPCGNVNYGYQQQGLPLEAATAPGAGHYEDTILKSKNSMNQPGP

Compound	IC50	inhibition at 0.1 µM	inhibition at 1 µM
OC1CCN(c2ccc(-c3cnc4[nH]cc(-c5cnn(Cc6cccc(F)c6)c5)c4c3)cn2)CC1 [Example 155, 1-(5-(3-(1-(3-fluorobenzyl)-1H-pyrazol-4-yl)-1H-pyrrolo[2,3-b]pyridin-5-yl)pyridin-2-yl)piperidin-4-ol]	< 50 nM	86%	97%
CS(=O)(=O)Nc1cccc(-c2cnc3[nH]cc(-c4cnn(Cc5cccc(N)c5)c4)c3c2)c1 [Example 8, N-(3-(3-(1-(3-aminobenzyl)-1H-pyrazol-4-yl)-1H-pyrrolo[2,3-b]pyridin-5-yl)phenyl) methane sulfonamide]	< 50 nM	81%	97%
c1ccc(CCn2cc(-c3c[nH]c4ncc(-c5ccc(N6CCNCC6)cc5)cc34)cn2)cc1 [Example 185, 3-(1-phenethyl-1H-pyrazol-4-yl)-5-(4-(piperazin-1-yl)phenyl)-1H-pyrrolo[2,3-b]pyridine]		80%	86%
C[C@@H](O)CN1CCN(c2ccc(-c3cnc4[nH]cc(-c5cnn(Cc6cccc(F)c6)c5)c4c3)cc2)CC1 [Example 120, (R)-1-(4-(4-(3-(1-(3-fluorobenzyl)-1H-pyrazol-4-yl)-1H-pyrrolo[2,3-b]pyridin-5-yl)phenyl)piperazin-1-yl)propan-2-ol]	< 50 nM	95%	99%
CN1CCN(c2ccc(-c3cnc4[nH]cc(-c5cnn(CCc6ccccc6)c5)c4c3)cc2)CC1 [Example 109, 5-(4-(4-methylpiperazin-1-yl)phenyl)-3-(1-phenethyl-1H-pyrazol-4-yl)-1H-pyrrolo[2,3-b]pyridine]		76%	100%
Cc1nn(Cc2cccc(F)c2)cc1-c1c[nH]c2ncc(-c3ccc(N4CCN(C[C@H](C)O)CC4)cc3)cc12 [Example 130, (S)-1-(4-(4-(3-(1-(3-fluorobenzyl)-3-methyl-1H-pyrazol-4-yl)-1H-pyrrolo[2,3-b]pyridin-5-yl)phenyl)piperazin-1-yl)propan-2-ol]	< 50 nM	88%	99%
CS(=O)(=O)Nc1cccc(-c2cnc3[nH]cc(-c4cnn(Cc5cccc(F)c5)c4)c3c2)c1 [Example 9, N-(3-(3-(1-(3-fluorobenzyl)-1H-pyrazol-4-yl)-1H-pyrrolo[2,3-b]pyridin-5-yl)phenyl)methanesulfonamide]	< 50 nM		98%
CN1CCN(c2ccc(-c3cnc4[nH]cc(-c5cnn(Cc6cc(F)cc(F)c6)c5)c4c3)cn2)CC1 [Example 133, 3-(1-(3,5-difluorobenzyl)-1H-pyrazol-4-yl)-5-(6-(4-methylpiperazin-1-yl)pyridin-3-yl)-1H-pyrrolo[2,3-b]pyridine]	< 50 nM	97%	100%
c1ccc(CCn2cc(-c3c[nH]c4ncc(-c5cccc(CC6CCNCC6)c5)cc34)cn2)cc1 [Example 98, 3-(1-phenethyl-1H-pyrazol-4-yl)-5-(3-(piperidin-4-ylmethyl)phenyl)-1H-pyrrolo[2,3-b]pyridine]	50 to 250 nM	24%	95%
COc1ccc(-c2cnc3[nH]cc(-c4ccn(Cc5cc(F)cc(F)c5)n4)c3c2)cc1NS(C)(=O)=O [Example 69, N-(5-(3-(1-(3,5-difluorobenzyl)-1H-pyrazol-3-yl)-1H-pyrrolo[2,3-b]pyridin-5-yl)-2-methoxyphenyl)methanesulfonamide]		15%	76%
CNS(=O)(=O)c1cc(-c2cnc3[nH]cc(-c4c(C)nn(Cc5cccc(F)c5)c4C)c3c2)ccc1OC [Example 18, 5-(3-(1-(3-fluorobenzyl)-3,5-dimethyl-1H-pyrazol-4-yl)-1H-pyrrolo[2,3-b]pyridin-5-yl)-2-methoxy-N-methylbenzenesulfonamide]	50 to 250 nM	62%	94%
CCS(=O)(=O)Nc1cc(-c2cnc3[nH]cc(-c4c(C)nn(Cc5cccc(F)c5)c4C)c3c2)ccc1OC [Example 15, N-(5-(3-(1-(3-fluorobenzyl)-3,5-dimethyl-1H-pyrazol-4-yl)-1H-pyrrolo[2,3-b]pyridin-5-yl)-2-methoxyphenyl)ethanesulfonamide]		33%	75%
Cc1nn(Cc2cccc(F)c2)c(C)c1-c1c[nH]c2ncc(-c3ccc(N4CCNCC4)cc3)cc12 [Example 40, 3-(1-(3-fluorobenzyl)-3,5-dimethyl-1H-pyrazol-4-yl)-5-(4-(piperazin-1-yl)phenyl)-1H-pyrrolo[2,3-b]pyridine hydrochloride]	< 50 nM	94%	100%
CS(=O)(=O)Nc1cccc(-c2cnc3[nH]cc(-c4cnn(Cc5cccc(Cl)c5)c4)c3c2)c1 [Example 10, N-(3-(3-(1-(3-chlorobenzyl)-1H-pyrazol-4-yl)-1H-pyrrolo[2,3-b]pyridin-5-yl)phenyl)methane sulfonamide]	50 to 250 nM		81%
Cc1nn(Cc2cccc(F)c2)c(C)c1-c1c[nH]c2ncc(-c3ccc(N4CCN(C)CC4)cc3)cc12 [Example 56, 3-(1-(3-fluorobenzyl)-3,5-dimethyl-1H-pyrazol-4-yl)-5-(4-(4-methylpiperazin-1-yl)phenyl)-1H pyrrolo[2,3-b]pyridine]	< 50 nM	91%	100%
Cc1nn(Cc2cccc(F)c2)c(C)c1-c1c[nH]c2ncc(-c3cnc(O)c(NS(C)(=O)=O)c3)cc12 [Example 66, N-(5-(3-(1-(3-fluorobenzyl)-3,5-dimethyl-1H-pyrazol-4-yl)-1H-pyrrolo[2,3-b]pyridin-5-yl)-2-hydroxypyridin-3-yl)methanesulfonamide]		38%	95%
Cc1nn(Cc2cccc(F)c2)c(C)c1-c1c[nH]c2ncc(-c3ccc(N4CCNCC4)c(NS(C)(=O)=O)c3)cc12 [Example 58, N-(5-(3-(1-(3-fluorobenzyl)-3,5-dimethyl-1H-pyrazol-4-yl)-1H-pyrrolo[2,3-b]pyridin-5-yl)-2-(piperazin-1-yl)phenyl)methanesulfonamide hydrochloride]	< 50 nM	92%	100%
COc1cc(-c2cnc3[nH]cc(-c4cnn(Cc5cccc(F)c5)c4)c3c2)cnc1N1CCNCC1 [Example 174, 3-(1-(3-fluorobenzyl)-1H-pyrazol-4-yl)-5-(5-methoxy-6-(piperazin-1-yl)pyridin-3-yl)-1H-pyrrolo[2,3-b]pyridine]	< 50 nM	96%	100%
COc1ccc(-c2cnc3[nH]cc(-c4cnn(CCc5ccc(F)cc5)c4)c3c2)cc1NS(C)(=O)=O [Example 76, N-(5-(3-(1-(4-fluorophenethyl)-1H-pyrazol-4-yl)-1H-pyrrolo[2,3-b]pyridin-5-yl)-2-methoxyphenyl)methanesulfonamide]	50 to 250 nM	32%	94%
CS(=O)(=O)Nc1cccc(-c2cnc3[nH]cc(-c4cnn(Cc5cccc(C(F)(F)F)c5)c4)c3c2)c1 [Example 2, N-(3-(3-(1-(3-(trifluoromethyl)benzyl)-1H-pyrazol-4-yl)-1H-pyrrolo[2,3-b]pyridin-5-yl)phenyl) methanesulfonamide]	> 250 nM		33%
Cc1c(-c2c[nH]c3ncc(-c4ccc(C5CCNCC5)cc4)cc23)cnn1Cc1cccc(F)c1 [Example 91, 3-(1-(3-fluorobenzyl)-5-methyl-1H-pyrazol-4-yl)-5-(4-(piperidin-4-yl)phenyl)-1H-pyrrolo[2,3-b]pyridine]	< 50 nM	99%	100%
CS(=O)(=O)Nc1cccc(-c2cnc3[nH]cc(-c4cnn(Cc5cc(F)cc(F)c5)c4)c3c2)c1 [Example 6, N-(3-(3-(1-(3,5-difluorobenzyl)-1H-pyrazol-4-yl)-1H-pyrrolo[2,3-b]pyridin-5-yl)phenyl) methane sulfonamide]	< 50 nM		99%
CS(=O)(=O)Nc1cc(-c2cnc3[nH]cc(-c4cnn(Cc5cccc(F)c5)c4)c3c2)ccc1N1CCNCC1 [Example 106, N-(5-(3-(1-(3-fluorobenzyl)-1H-pyrazol-4-yl)-1H-pyrrolo[2,3-b]pyridin-5-yl)-2-(piperazin-1-yl)phenyl)methanesulfonamide hydrochloride]	< 50 nM	97%	100%
C[C@H](O)CN1CCN(c2ccc(-c3cnc4[nH]cc(-c5cnn(Cc6ccccc6)c5)c4c3)cc2)CC1 [Example 118, (S)-1-(4-(4-(3-(1-benzyl-1H-pyrazol-4-yl)-1H-pyrrolo[2,3-b]pyridin-5-yl)phenyl)piperazin-1-yl)propan-2-ol]	< 50 nM	94%	98%
CS(=O)(=O)Nc1cccc(-c2cnc3[nH]cc(-c4cnn(Cc5cccc(C#N)c5)c4)c3c2)c1 [Example 11, N-(3-(3-(1-(3-cyanobenzyl)-1H-pyrazol-4-yl)-1H-pyrrolo[2,3-b]pyridin-5-yl)phenyl)methane sulfonamide]	< 50 nM	64%	90%
Cc1cccc(Cn2cc(-c3c[nH]c4ncc(-c5ccc(N6CCN(C[C@H](C)O)CC6)nc5)cc34)cn2)c1 [Example 145, (S)-1-(4-(5-(3-(1-(3-methylbenzyl)-1H-pyrazol-4-yl)-1H-pyrrolo[2,3-b]pyridin-5-yl)pyridin-2-yl)piperazin-1-yl)propan-2-ol]	< 50 nM	83%	99%
CN1CCC(c2ccc(-c3cnc4[nH]cc(-c5cnn(Cc6cccc(F)c6)c5)c4c3)cc2)CC1 [Example 83, 3-(1-(3-fluorobenzyl)-1H-pyrazol-4-yl)-5-(4-(1-methylpiperidin-4-yl)phenyl)-1H-pyrrolo[2,3-b]pyridine]	< 50 nM	96%	100%
